# Reference: PubChem BioAssay (NCI)
#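 Values below derive from 48-hour exposures of cells grown in 96-well plates, with endpoints linearly interpolated between the two concentrations bracketing the appropriate inhibition level. TGI: total growth inhibition.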
# Legend:
# Experiment in all cases: DTP human tumour cell line panel, 48 h
# CAKI-1 renal = tested on: CAKI-1 renal
# SK-MEL-2 melanoma = tested on: SK-MEL-2 melanoma
# PC-3 prostate = tested on: PC-3 prostate
# A549 NSCLC = tested on: A549 NSCLC
# HS 578T breast = tested on: HS 578T breast
# SK-MEL-28 melanoma = tested on: SK-MEL-28 melanoma
# NCI-H226 lung = tested on: NCI-H226 lung
# HT29 colon = tested on: HT29 colon
# SNB-75 CNS = tested on: SNB-75 CNS
# SW-620 colon = tested on: SW-620 colon
# SR leukemia = tested on: SR leukemia
# MCF7 breast = tested on: MCF7 breast
# SF-295 CNS = tested on: SF-295 CNS
# HCT-15 colon = tested on: HCT-15 colon
# OVCAR-8 ovarian = tested on: OVCAR-8 ovarian
# BT-549 breast = tested on: BT-549 breast
# M14 melanoma = tested on: M14 melanoma
# UACC-62 melanoma = tested on: UACC-62 melanoma
# HCT-116 colon = tested on: HCT-116 colon
# ACHN renal = tested on: ACHN renal
# MDA-N = tested on: MDA-N
# UO-31 renal = tested on: UO-31 renal
# SN12C renal = tested on: SN12C renal
# NCI/ADR-RES ovarian = tested on: NCI/ADR-RES ovarian
# HOP-92 NSCLC = tested on: HOP-92 NSCLC
# MDA-MB-231 breast = tested on: MDA-MB-231 breast
# HL-60(TB) leukemia = tested on: HL-60(TB) leukemia
# OVCAR-5 ovarian = tested on: OVCAR-5 ovarian
# RXF 393 renal = tested on: RXF 393 renal
# KM12 colon = tested on: KM12 colon
# T-47D breast = tested on: T-47D breast
# SF-268 CNS = tested on: SF-268 CNS
# OVCAR-3 ovarian = tested on: OVCAR-3 ovarian
# NCI-H522 lung = tested on: NCI-H522 lung
# 786-0 renal = tested on: 786-0 renal
# TK-10 renal = tested on: TK-10 renal
# MALME-3M melanoma = tested on: MALME-3M melanoma
# SK-OV-3 ovarian = tested on: SK-OV-3 ovarian
# UACC-257 melanoma = tested on: UACC-257 melanoma
# A498 renal = tested on: A498 renal
# SK-MEL-5 melanoma = tested on: SK-MEL-5 melanoma
# OVCAR-4 ovarian = tested on: OVCAR-4 ovarian
# MDA-MB-435 = tested on: MDA-MB-435
# MOLT-4 leukemia = tested on: MOLT-4 leukemia
# NCI-H460 lung = tested on: NCI-H460 lung
# HOP-62 NSCLC = tested on: HOP-62 NSCLC
# NCI-H23 lung = tested on: NCI-H23 lung
# EKVX NSCLC = tested on: EKVX NSCLC
# U251 CNS = tested on: U251 CNS
# RPMI-8226 leukemia = tested on: RPMI-8226 leukemia
# LOX IMVI melanoma = tested on: LOX IMVI melanoma
# IGROV1 ovarian = tested on: IGROV1 ovarian
# K-562 leukemia = tested on: K-562 leukemia
# SF-539 CNS = tested on: SF-539 CNS
# SNB-19 CNS = tested on: SNB-19 CNS
# DU-145 prostate = tested on: DU-145 prostate
# HCC-2998 colon = tested on: HCC-2998 colon
# CCRF-CEM leukemia = tested on: CCRF-CEM leukemia
compound,measurement,setting,value
COC(=O)C(/C(=N/NC(=O)c1ccncc1)C(=O)Nc1ccccc1OC)c1nc2ccc(Cl)cc2[nH]c1=O (stereo not given),TGI,CAKI-1 renal,> 100 µM
same,TGI,SK-MEL-2 melanoma,> 100 µM
same,TGI,PC-3 prostate,> 100 µM
same,TGI,A549 NSCLC,> 100 µM
same,TGI,HS 578T breast,> 100 µM
same,TGI,SK-MEL-28 melanoma,> 100 µM
same,TGI,NCI-H226 lung,> 100 µM
same,TGI,HT29 colon,> 100 µM
same,TGI,SNB-75 CNS,> 100 µM
same,TGI,SW-620 colon,> 100 µM
same,TGI,SR leukemia,> 100 µM
same,TGI,MCF7 breast,> 100 µM
same,TGI,SF-295 CNS,> 100 µM
same,TGI,HCT-15 colon,> 100 µM
same,TGI,OVCAR-8 ovarian,> 100 µM
same,TGI,BT-549 breast,> 100 µM
same,TGI,M14 melanoma,> 100 µM
same,TGI,UACC-62 melanoma,> 100 µM
same,TGI,HCT-116 colon,> 100 µM
same,TGI,ACHN renal,> 100 µM
same,TGI,MDA-N,> 100 µM
same,TGI,UO-31 renal,> 100 µM
same,TGI,SN12C renal,> 100 µM
same,TGI,NCI/ADR-RES ovarian,> 100 µM
same,TGI,HOP-92 NSCLC,> 100 µM
same,TGI,MDA-MB-231 breast,> 100 µM
same,TGI,HL-60(TB) leukemia,> 100 µM
same,TGI,OVCAR-5 ovarian,> 100 µM
same,TGI,RXF 393 renal,> 100 µM
same,TGI,KM12 colon,> 100 µM
same,TGI,T-47D breast,> 100 µM
same,TGI,SF-268 CNS,> 100 µM
same,TGI,OVCAR-3 ovarian,> 100 µM
same,TGI,NCI-H522 lung,> 100 µM
same,TGI,786-0 renal,> 100 µM
same,TGI,TK-10 renal,> 100 µM
same,TGI,MALME-3M melanoma,> 100 µM
same,TGI,SK-OV-3 ovarian,> 100 µM
same,TGI,UACC-257 melanoma,> 100 µM
same,TGI,A498 renal,> 100 µM
same,TGI,SK-MEL-5 melanoma,> 100 µM
same,TGI,OVCAR-4 ovarian,> 100 µM
same,TGI,MDA-MB-435,> 100 µM
same,TGI,MOLT-4 leukemia,> 100 µM
same,TGI,NCI-H460 lung,> 100 µM
same,TGI,HOP-62 NSCLC,> 100 µM
same,TGI,NCI-H23 lung,> 100 µM
same,TGI,EKVX NSCLC,> 100 µM
same,TGI,U251 CNS,> 100 µM
same,TGI,RPMI-8226 leukemia,> 100 µM
same,TGI,LOX IMVI melanoma,> 100 µM
same,TGI,IGROV1 ovarian,> 100 µM
same,TGI,K-562 leukemia,> 100 µM
same,TGI,SF-539 CNS,> 100 µM
Cc1c2c3cc(O)ccc3nc-2n(C)c2ccccc12,TGI,PC-3 prostate,5.94 µM
same,TGI,A549 NSCLC,3.48 µM
same,TGI,HS 578T breast,8.21 µM
same,TGI,SK-MEL-28 melanoma,5.97 µM
same,TGI,NCI-H226 lung,8.54 µM
same,TGI,HT29 colon,7.26 µM
same,TGI,SNB-75 CNS,5.83 µM
same,TGI,SW-620 colon,2.7 µM
same,TGI,SR leukemia,21.3 µM
same,TGI,MCF7 breast,9.82 µM
same,TGI,SF-295 CNS,13 µM
same,TGI,HCT-15 colon,10.5 µM
same,TGI,OVCAR-8 ovarian,10.6 µM
same,TGI,BT-549 breast,8.52 µM
same,TGI,M14 melanoma,4.6 µM
same,TGI,UACC-62 melanoma,3.21 µM
same,TGI,HCT-116 colon,10.1 µM
same,TGI,ACHN renal,10.3 µM
same,TGI,MDA-N,8.37 µM
same,TGI,UO-31 renal,2.72 µM
same,TGI,SN12C renal,4.38 µM
same,TGI,NCI/ADR-RES ovarian,3.4 µM
same,TGI,HOP-92 NSCLC,5.21 µM
same,TGI,SNB-19 CNS,15.1 µM
same,TGI,HL-60(TB) leukemia,19.8 µM
same,TGI,DU-145 prostate,14.3 µM
same,TGI,OVCAR-5 ovarian,8.85 µM
same,TGI,RXF 393 renal,2.86 µM
same,TGI,HCC-2998 colon,6.28 µM
same,TGI,KM12 colon,5.28 µM
same,TGI,T-47D breast,17.1 µM
same,TGI,SF-268 CNS,8.02 µM
same,TGI,OVCAR-3 ovarian,6.07 µM
same,TGI,786-0 renal,10.5 µM
same,TGI,TK-10 renal,9.82 µM
same,TGI,MALME-3M melanoma,3.44 µM
same,TGI,SK-OV-3 ovarian,6.22 µM
same,TGI,UACC-257 melanoma,8.05 µM
same,TGI,SK-MEL-5 melanoma,2.29 µM
same,TGI,MDA-MB-435,4.62 µM
same,TGI,MOLT-4 leukemia,3.32 µM
same,TGI,NCI-H460 lung,5.11 µM
same,TGI,HOP-62 NSCLC,7.99 µM
same,TGI,NCI-H23 lung,8.61 µM
same,TGI,EKVX NSCLC,6.91 µM
same,TGI,U251 CNS,6.91 µM
same,TGI,RPMI-8226 leukemia,> 100 µM
same,TGI,CCRF-CEM leukemia,4.37 µM
same,TGI,IGROV1 ovarian,8.92 µM
same,TGI,K-562 leukemia,7.5 µM
same,TGI,SF-539 CNS,4.98 µM
